Earlier results in paper PMC3600580 (Experimental neurology, 2012).

System: offspring
Details: developmental exposure, ref Kuriyama, et al., 2005, Rice, 2007, Suvorov, 2009

SMILES	activity phenotype of offspring
Brc1ccc(Oc2ccc(Br)cc2Br)c(Br)c1 [BDE-47, 2,2′,4,4′-TetraBDE]	hyperactive
Brc1c(Br)c(Br)c(Oc2c(Br)c(Br)c(Br)c(Br)c2Br)c(Br)c1Br [compound 209]	hyperactive
